14 compounds from US9815841B2, “Compounds” (GLAXOSMITHKLINE INTELLECTUAL PROPERTY DEVELOPMENT LIMITED, priority 2014, dated 2017) can be followed below.

This experiment concerns the target T1, purified recombinant 6HIS-Tev-LRRK2 (1326-2527) (Homo sapiens, UniProt Q5S007).
T1 construct: A LRRK2 cDNA encoding residues 1326-2527 was received from Dundee University; made in house; host or cells: Spodoptera frugiperda (Sf9) insect cells, baculovirus (pFB-HTb)
T1 sequence (Q5S007 1326-2527): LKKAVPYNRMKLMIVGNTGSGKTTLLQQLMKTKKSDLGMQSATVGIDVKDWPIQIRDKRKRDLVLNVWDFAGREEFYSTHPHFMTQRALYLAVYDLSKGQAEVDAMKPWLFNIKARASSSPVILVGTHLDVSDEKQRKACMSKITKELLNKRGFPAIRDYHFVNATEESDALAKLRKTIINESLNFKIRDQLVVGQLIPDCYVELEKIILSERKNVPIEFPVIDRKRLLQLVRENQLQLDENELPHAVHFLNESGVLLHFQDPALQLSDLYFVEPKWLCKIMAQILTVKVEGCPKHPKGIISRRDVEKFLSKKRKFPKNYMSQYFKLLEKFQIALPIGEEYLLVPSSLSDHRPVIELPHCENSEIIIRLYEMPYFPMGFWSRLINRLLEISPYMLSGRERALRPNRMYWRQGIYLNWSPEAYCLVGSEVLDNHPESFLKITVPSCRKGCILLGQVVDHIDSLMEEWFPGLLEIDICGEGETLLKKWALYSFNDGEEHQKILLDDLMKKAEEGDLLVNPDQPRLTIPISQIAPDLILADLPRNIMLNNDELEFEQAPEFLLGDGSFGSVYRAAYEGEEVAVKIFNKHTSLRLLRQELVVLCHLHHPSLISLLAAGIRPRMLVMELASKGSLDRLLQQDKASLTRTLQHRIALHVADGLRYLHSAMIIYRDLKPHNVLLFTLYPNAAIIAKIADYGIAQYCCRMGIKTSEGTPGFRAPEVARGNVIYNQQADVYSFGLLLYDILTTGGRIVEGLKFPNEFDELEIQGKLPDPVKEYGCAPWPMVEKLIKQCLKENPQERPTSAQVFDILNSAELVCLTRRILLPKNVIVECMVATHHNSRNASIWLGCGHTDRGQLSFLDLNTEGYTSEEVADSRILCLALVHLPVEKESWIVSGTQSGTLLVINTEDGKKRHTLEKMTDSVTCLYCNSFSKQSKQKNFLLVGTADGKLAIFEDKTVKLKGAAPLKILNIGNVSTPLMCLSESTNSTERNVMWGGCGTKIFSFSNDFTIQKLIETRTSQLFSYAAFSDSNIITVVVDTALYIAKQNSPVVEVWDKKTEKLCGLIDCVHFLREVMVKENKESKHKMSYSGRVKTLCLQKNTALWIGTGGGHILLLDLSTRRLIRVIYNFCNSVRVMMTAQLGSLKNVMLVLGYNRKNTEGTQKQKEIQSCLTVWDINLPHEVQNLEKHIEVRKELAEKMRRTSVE
Description: Recombinant LRRK2 enzyme peptide substrate TR-FRET assay. Type of experiment: biochemical. The conditions noted are these: 60 nM LRRK2 (1326-2527), 1 uM Biotin-longer LRRKtide, 10 uM ATP; read-out: recombinant LRRK2 enzyme peptide substrate TR-FRET assay (pIC50) (converted). On the procedure:
This gene fragment was subcloned into pFB-HTb (Invitrogen) using BamHI and NotI restriction sites. The LRRK2 plasmid was recombined into the baculovirus genome according to the BAC-to-BAC protocol described by Invitrogen. Transfection into Spodoptera frugiperda (Sf9) insect cells was performed using Cellfectin (Invitrogen), according to the manufacturer's protocol to generate P1 and P2 baculovirus stocks.
Sf9 cells were grown in HyClone SFX (Thermo Scientific) growth media at 27° C., 80 rpm in shake flask until of a sufficient volume to inoculate a bioreactor. […] The cells were infected with P2 Baculovirus at a multiplicity of infection (MOI) of 3. The cultivation was continued for a 48 hour expression phase. The infected cells were removed from the growth media by centrifugation at 2500 g using a Sorvall RC 3C Plus centrifuge at 2500 g for 20 minutes. The cell pellet was immediately frozen and subsequently supplied for purification.
A 260 g pellet was allowed to thaw in a water bath at 27° C. with 800 ml lysis buffer/buffer A (50 mm Tris-HCl pH 8.5, 300 mM NaCl, 1 mm DTT, 10% glycerol, 1 ml/L calbiochem complete protease inhibitor cocktail and benzonase (50 ul/800 ml)) before being dounce homogenised on ice using 20 strokes per 100 ml. The suspension was packed in ice and sonicated at 50% amplitude for 3 min 10 sec on/off using a ¾″ probe. The suspension was then centrifuged at 100,000 g for 90 min, at 4° C.
The lysate (700 ml) was decanted from the insoluble pellet and contacted for 3 h at 4 C with 10 ml His bind Ni NTA resin by end over end mixing. The resin was recovered by centrifugation, 3000 g, 5 min at 4 C, and packed in an XK16 column. The column was then washed with 10 column volumes buffer A, 10 column volumes buffer B (buffer A+1M NaCl) and 10 column volumes buffer C (buffer A+20 mM imidazole). The column was then eluted with 15 column volumes buffer D (buffer A+300 mM imidazole) collecting 2 ml fractions. All washes and elution were conducted at 4 ml/min.
Fractions identified by SDS-PAGE as containing protein of interest were pooled and loaded directly onto a 320 ml SEC Superdex 200 pg column that was pre-equilibrated with buffer E (50 mM Tris-HCl pH 8.5, 300 mM NaCl, 10% glycerol, 1 mM DTT). The column was loaded and eluted with 1.2 column volumes buffer E at 2 ml/min collecting 2 ml fractions. Fractions identified by SDS-PAGE as containing protein of interest were tested for activity.
Production of Biotin-Longer LRRKtide
The resulting crude peptide was cleaved from the resin using a 95:2.5:2.5 mix of trifluoroacetic acid:triisopropylsilane:water.
Recombinant LRRK2 Enzyme Peptide Substrate TR-FRET Assay
Assay Protocol • 1. A 10 mM test compound was dissolved in 100% DMSO and serially diluted 1 in 4. 100 nL was then added to a 384 well low volume black plate, excluding columns 6 and 18. 100 nL of DMSO was added to columns 6 and 18 as controls wells. […] Test plates were then incubated for 30 minutes at room temperature. • 3. 3 uL ‘substate solution’ containing 2 uM Biotin-longer LRRKtide peptide substrate and 20 uM ATP was added to all wells of the plate using a multidrop combi dispenser giving a final assay concentration of 1 uM Biotin-longer LRRKtide and 10 uM ATP. Test plates were then incubated for 2 hours at room temperature. (Incubation may vary depending on rate and linearity of reaction with different enzyme batches). • 4. […] Data is analysed using ActivityBase software (IDBS). Dilutions and concentrations of reagents determined on a batch to batch basis

Where only a bound is given, the exact number is not on record here.

For `CCOc1nc(Nc2ccc(C(=O)N3CCC[C@@H]3COC)cc2OC)nc2[nH]ccc12` [Example E35, (R)-(4-((4-ethoxy-7H-pyrrolo-[2,3-d]pyrimidin-2-yl)amino)-3-methoxyphenyl)(2-(methoxymethyl)pyrrolidin-1-yl)methanone], the IC50 was not above 10 nM.

On to `CCOc1nc(Nc2ccc(C(=O)N3CC4CC4(COC)C3)cc2OC)nc2[nH]ccc12` (single isomer, unassigned) [Example E64, (4-((4-ethoxy-7H-pyrrolo-[2,3-d]pyrimidin-2-yl)amino)-3-methoxyphenyl)-(1-(methoxymethyl)-3-azabicyclo[3.1.0]hexan-3-yl)methanone], for which the IC50 is not above 10 nM.

As for `CCOc1nc(Nc2ccc(C(=O)N3CCN(C)[C@H](C)C3)cc2OC)nc2[nH]ccc12` [Example E29, (R)-(3,4-dimethylpiperazin-1-yl)-(4-((4-ethoxy-7H-pyrrolo-[2,3-d]-pyrimidin-2-yl)amino)-3-methoxyphenyl)methanone], the IC50 is not above 10 nM.

For `CCOc1nc(Nc2ccc(C(=O)N3CCN(C)[C@@H](C)C3)cc2OC)nc2[nH]ccc12` [Example E41, (S)-(3,4-dimethylpiperazin-1-yl)(4-((4-ethoxy-7H-pyrrolo-[2,3-d]-pyrimidin-2-yl)amino)-3-methoxyphenyl)methanone], the IC50 was not above 10 nM.

`CCOc1nc(Nc2cc(F)c(C(=O)N3CCN(C)CC3)cc2OC)nc2[nH]ccc12` [Example E5, (4-((4-ethoxy-7H-pyrrol-[2,3-d]pyrimidin-2-yl)amino)-2-fluoro-5-methoxyphenyl)(4-methylpiperazin-1-yl)-methanone]: the IC50 was not above 10 nM.

As to `CCOc1nc(Nc2ccc(C(=O)N3CCCC4(COC4)C3)cc2OC)nc2[nH]ccc12` [Example E44, (4-((4-ethoxy-7H-pyrrolo-[2,3-d]pyrimidin-2-yl)amino)-3-methoxyphenyl)(2-oxa-6-azaspiro-[3.5]nonan-6-yl)methanone], the IC50 was not above 10 nM.

Consider `CCOc1nc(Nc2ccc(C(=O)N3CC4CC4(CO)C3)cc2OC)nc2[nH]ccc12` (single isomer, unassigned) [Example E46, (4-((4-ethoxy-7H-pyrrolo-[2,3-d]-pyrimidin-2-yl)amino)-3-methoxyphenyl)(1-(hydroxymethyl)-3-azabicyclo-[3.1.0]-hexan-3-yl)methanone], for which the IC50 was not above 10 nM.

Turning to `CCOc1nc(Nc2ccc(C(=O)N3CCC(COC)CC3)cc2OC)nc2[nH]ccc12` [Example E42, (4-((4-ethoxy-7H-pyrrolo-[2,3-d]-pyrimidin-2-yl)amino)-3-methoxyphenyl)(4-(methoxymethyl)piperidin-1-yl)methanone], the IC50 is not above 10 nM.

Regarding `CCOc1cc(C(=O)N2CCN(C)CC2)ccc1Nc1nc(OCC)c2cc[nH]c2n1` [Example E25, (3-ethoxy-4-((4-ethoxy-7H-pyrrolo-[2,3-d]pyrimidin-2-yl)amino)phenyl)(4-methylpiperazin-1-yl)methanone], the IC50 was not above 10 nM.

Take `CCOc1nc(Nc2ccc(C(=O)N3[C@H](C#N)C[C@@H]4C[C@@H]43)cc2OC)nc2[nH]ccc12` [Example E66, (1 S,3S,5S)-2-(4-((4-ethoxy-7H-pyrrolo-[2,3-d]pyrimidin-2-yl)amino)-3-methoxybenzoyl)-2-azabicyclo-[3.1.0]-hexane-3-carbonitrile]: the IC50 was not above 10 nM.

On to `CCOc1nc(Nc2ccc(C(=O)N3CCC(F)CC3)cc2OC)nc2[nH]ccc12` [Example E36, (4-((4-ethoxy-7H-pyrrolo-[2,3-d]pyrimidin-2-yl)amino)-3-methoxyphenyl)(4-fluoropiperidin-1-yl)methanone], for which the IC50 was not above 10 nM.

For `CCOc1nc(Nc2ccc(C(=O)N3CCN(C)CC3)cc2OCC2CC2)nc2[nH]ccc12` [Example E8, (3-(cyclopropylmethoxy)-4-((4-ethoxy-7H-pyrrolo-[2,3-d]-pyrimidin-2-yl)amino)phenyl)(4-methylpiperazin-1-yl)-methanone], the IC50 was not above 10 nM.

As for `CCOc1nc(Nc2ccc(C(=O)N3CCN(C)CC3)cc2OC(F)F)nc2[nH]ccc12` [Example E7, (3-(difluoromethoxy)-4-((4-ethoxy-7H-pyrrolo-[2,3-d]-pyrimidin-2-yl)amino)phenyl)(4-methylpiperazin-1-yl)-methanone], the IC50 is not above 10 nM.

With `CCOc1nc(Nc2ccc(C(=O)N3CCC4(CC3)CC4COC)cc2OC)nc2[nH]ccc12` (single isomer, unassigned) [Example E52, (4-((4-ethoxy-7H-pyrrolo-[2,3-d]-pyrimidin-2-yl)amino)-3-methoxyphenyl)(1-(methoxymethyl)-6-azaspiro-[2.5]-octan-6-yl)methanone], the IC50 is not above 10 nM.
